Assay results: patent US4654349A, “Anti-allergic methods using pyrazolo(1,5-A)pyridines” (Kyorin Pharmaceutical Co., Ltd., priority 1983, dated 1987)

Experiments:
SRS-A release = assay: Inhibitory effect on SRS-A release (chopped lung fragments of sensitized guinea pigs upon antigen challenge, bioassayed on isolated guinea pig ileum); format: cell-based; conditions: Cavia porcellus; concentration of test compound required to produce a 50% inhibition of SRS-A release; preincubated with lung fragments prior to antigen challenge
Procedure: The inhibitory effect of the compounds of this invention on SRS-A release was determined according to the method of Orange and Moors [J. Immunol., 116, 392 (1976)]. SRS-A released from chopped lung fragments of sensitized guinea pigs upon antigen challenge was bioassayed on isolate guinea pig ileum according to the method of Brocklehurst [J. Physiol., 151, 416 (1960)]. Test compounds were preincubated with lung fragments prior to antigen challenge.

5-Lipoxygenase = target: T1, 5-Lipoxygenase (Cavia porcellus, UniProt A0A286X958); assay: Effect on metabolism of exogenous arachidonic acid in A23187-stimulated guinea pig peritoneal neutrophils: 5-lipoxygenase product; format: cell-based; conditions: read-out: Inhibition percent, 5-Lipoxygenase
T1 construct: using guinea pig peritoneal neutrophils stimulated with calcium ionophore A23187; endogenous in cells; host or cells: guinea pig peritoneal neutrophils
T1 sequence (A0A286X958 1-674): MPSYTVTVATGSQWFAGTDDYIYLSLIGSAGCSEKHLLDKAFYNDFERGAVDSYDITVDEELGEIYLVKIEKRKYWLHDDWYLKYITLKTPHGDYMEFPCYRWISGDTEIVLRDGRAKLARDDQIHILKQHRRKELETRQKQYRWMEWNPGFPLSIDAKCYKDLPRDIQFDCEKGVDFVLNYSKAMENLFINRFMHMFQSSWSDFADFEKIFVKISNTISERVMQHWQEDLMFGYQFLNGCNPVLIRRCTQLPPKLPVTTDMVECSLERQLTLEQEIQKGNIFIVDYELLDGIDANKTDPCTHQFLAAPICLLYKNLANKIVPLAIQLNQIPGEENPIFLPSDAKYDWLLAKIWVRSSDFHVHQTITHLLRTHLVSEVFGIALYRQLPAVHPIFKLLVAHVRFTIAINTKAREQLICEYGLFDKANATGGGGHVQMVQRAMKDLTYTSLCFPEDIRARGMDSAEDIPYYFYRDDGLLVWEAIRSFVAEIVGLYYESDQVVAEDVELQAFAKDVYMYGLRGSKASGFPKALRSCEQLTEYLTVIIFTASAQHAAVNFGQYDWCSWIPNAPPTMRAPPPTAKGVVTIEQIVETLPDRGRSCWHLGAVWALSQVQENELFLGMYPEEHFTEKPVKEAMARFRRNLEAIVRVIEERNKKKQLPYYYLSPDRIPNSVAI
Procedure: (§1) The effect of the compounds of this invention on the metabolism of exogenous arachidonic acid-1-^14 C was determined essentially according to the method of Harvey and Osborne [J. Pharmacol. Methods 9, 147 (1983)] using guinea pig peritoneal neutrophils stimulated with calcium ionophore A23187. With this procedure, 5-hydroxyeicosatetraenoic acid (a 5-lipoxygenase product) and 12-hydroxy-5,8,10-heptadecatrienoic acid (a cyclooxygenase product) were produced by neutrophils as major metabolites, allowing simultaneous evaluation of the drug effect on both pathways of arachidonic acid metabolism.

Cyclooxygenase = assay: Effect on metabolism of exogenous arachidonic acid in A23187-stimulated guinea pig peritoneal neutrophils: cyclooxygenase product; format: cell-based
Procedure: as §1

[1] = must be insufflated as a powder; cited from earlier work

Row | inhibition at 0.1 µM (5-Lipoxygenase) | Structure (SMILES) | IC50 (SRS-A release) | Inhibition percent, Cyclooxygenase (Cyclooxygenase; 0.1 μM) | further results
1 | – | CCc1ccc2c(O)c(C(C)C)nn2c1 [compound 4, 6-Ethyl-3-hydroxy-2-isopropylpyraxolo[1,5-a]pyridine] | 3.5 µg/mL | – | –
2 | 20.6% | CCCc1nn2ccccc2c1OC(C)=O [compound 10] | 1.7 µg/mL | 0% | inhibition at 0.3 µM (5-Lipoxygenase): 80.2%; Inhibition percent, Cyclooxygenase (Cyclooxygenase; 0.3 μM): 0%
3 | – | CCc1ccc2c(OC(=O)C(C)C)c(C(C)C)nn2c1 [compound 15, 6-Ethyl-3-isobutyryloxy-2-isopropylpyrazolo[1,5-a]pyridine] | 1.2 µg/mL | – | –
4 | – | CC(=O)Oc1c(-c2ccc(F)cc2)nn2ccccc12 [compound 20] | 2.4 µg/mL | – | inhibition at 1 µM (5-Lipoxygenase): 83.7%; Inhibition percent, Cyclooxygenase (Cyclooxygenase; 1.0 μM): 0%
5 | – | CC(C)C(=O)Oc1c(C(C)C)nn2ccccc12 [compound 13] | 0.88 µg/mL | – | –
6 | – | CC(C)c1nn2ccccc2c1O [compound 2] | 1.4 µg/mL | – | –
7 | – | Cc1cccc2c(OC(=O)C(C)C)c(C(C)C)nn12 [compound 14] | 0.53 µg/mL | – | –
8 | – | CC(=O)Oc1c(C(C)C)nn2ccccc12 [compound 11] | 0.7 µg/mL | – | –
9 | 20.3% | CC(C)Cc1nn2ccccc2c1O [compound 5] | 1.8 µg/mL | 0% | inhibition at 1 µM (5-Lipoxygenase): 86.6%; Inhibition percent, Cyclooxygenase (Cyclooxygenase; 1.0 μM): 0%
10 | – | O=C(O)c1cc(=O)c2c(OCC(O)COc3cccc4oc(C(=O)O)cc(=O)c34)cccc2o1 [disodium cromoglycate] | – | – | oral activity (in words) [1]: orally inactive
11 | – | O=C1CCN(c2ccccc2)N1 [phenidone, 1phenyl-3-pyrazolidone, reference compound] | 6.3 µg/mL | – | inhibition at 0.3 µM (5-Lipoxygenase): 22%; inhibition at 1 µM (5-Lipoxygenase): 60%; inhibition at 3 µM (5-Lipoxygenase; 3.0 μM): 89%; inhibition at 30 µM (5-Lipoxygenase; 30.0 μM): 95.5%; Inhibition percent, Cyclooxygenase (Cyclooxygenase; 0.3 μM): 0%; Inhibition percent, Cyclooxygenase (Cyclooxygenase; 1.0 μM): 0%; Inhibition percent, Cyclooxygenase (Cyclooxygenase; 3.0 μM): 0%; Inhibition percent, Cyclooxygenase (Cyclooxygenase; 30.0 μM): 58.2%
12 | – | CCOC(=O)Oc1c(C(C)C)nn2cc(CC)ccc12 [compound 17, 3-Ethoxycarbonyloxy-6-ethyl-2-isopropylpyrazolo[1,5-a]pyridine] | 1.5 µg/mL | – | –
13 | 16.9% | CC(C)CC(=O)Oc1c(CC(C)C)nn2ccccc12 [compound 16] | 1.9 µg/mL | 0% | inhibition at 0.3 µM (5-Lipoxygenase): 82.1%; Inhibition percent, Cyclooxygenase (Cyclooxygenase; 0.3 μM): 0%
14 | 35.1% | CCc1nn2ccccc2c1OC(C)=O [compound 9] | 1 µg/mL | 0% | inhibition at 0.3 µM (5-Lipoxygenase): 61.7%; Inhibition percent, Cyclooxygenase (Cyclooxygenase; 0.3 μM): 0%
15 | – | Cc1nn2ccccc2c1OC(=O)C(C)C [compound 8] | 1.7 µg/mL | – | –
16 | – | Cc1cccc2c(O)c(C(C)C)nn12 [compound 3] | 0.63 µg/mL | – | –
17 | 62% | CCC(=O)Oc1cnn2cc(CC)ccc12 [compound 7, 6-Ethyl-3-propionyloxypyrazolo[1,5-a]pridine] | 1 µg/mL | 0% | inhibition at 0.3 µM (5-Lipoxygenase): 84%; Inhibition percent, Cyclooxygenase (Cyclooxygenase; 0.3 μM): 0%
18 | – | CCc1ccc2c(O)cnn2c1 [compound 1, 6-Ethyl-3-hydroxypyrazolo[1,5-a]pyridine] | 0.55 µg/mL | – | –
19 | – | Oc1c(-c2ccc(F)cc2)nn2ccccc12 [compound 6, 2-p-Fluorophenyl-3-hydroxypyrazolo[1,5-a]pyridine] | 2.4 µg/mL | – | –
20 | 53.2% | CCC(=O)Oc1c(C(C)C)nn2ccccc12 [compound 12] | 0.52 µg/mL | 0% | –
